Results as given in patent US11234960B2, “Compositions and methods for improving mitochondrial function and treating neurodegenerative diseases and cognitive disorders” (Amazentis SA, priority 2010, dated 2022).

Experiments:
[1] = test system: maternally separated mice; assay: Dark/light box test in early-life stress (maternal separation) mice; assay type: in vivo; details: 90 mg/kg/day in food (FIG. 39)
Description: (§1) At postnatal day 1, pups were culled to have 6 pups per mother. From postnatal day 1 to 14, unpredictable maternal separation (MS) of a period of 3 hours daily was carried out. Maternal separation was performed at random times (from 8 am to 2 pm) to avoid the habituation of the mother to the procedure. The protocol consisted of removing pups from their mother to another cage at room temperature for a 3 hour period, after which the pups were returned to their original nest. These groups are denoted as early-life stress in the figures. A control group of dam/pups was left undisturbed and is denoted in the figures as normal.
(§2) One week after maternal separation mice were separated into two groups. One control group received the standard mouse chow diet (Untreated), while the other group received the ellagitannin punicalagin admixed into the food and designed to deliver a dose of 90 mg/kg/day to the mice. Treatment with the diet began 1 week after the termination of the maternal separation treatment.
The effects of early-life stress on depression, anxiety and cognition were examined utilizing the following behavioral assays which were carried out 166 days after the completion of the maternal separation protocol. Normally raised mice were compared versus maternally separated mice (early-life stress) and maternally separated mice treated with punicalagin. […]

[2] = test system: maternally separated mice; assay: Forced swim test in early-life stress mice; assay type: in vivo; details: early-life stressed mice, 90 mg/kg/day in food (FIG. 41)
Description: as §1
as §2, with “treatment. […]” for “treatment.”
Animals were considered to be engaged in swimming and mobile if there was a clear displacement of the body. […] Animal behavior was recorded over a 6-minute test period using a camera and a mirror behind the cylinder. The first 2 minutes and the last 4 minutes of the swimming were analyzed separately for mouse swimming activity. […]

normal mice = assay: Contextual fear conditioning (contextual memory) in normal mice; assay type: in vivo; details: punicalagin approx. 90 mg/kg/day 3 months; for contextual memory, freezing 24 hours after training: urolithin A approx. 55 mg/kg/day 2.5 months (FIG. 46); for memory retention, extinction of contextual memory over days 1-5: urolithin A approx. 55 mg/kg/day 2.5 months (FIG. 47)
Description: Beginning at 3 months of age, mice were either fed (i) a standard control diet such as AIN-93G; (ii) a diet containing punicalagin at a concentration of […], so as to deliver an approximate dose of 90 mg/kg/day (for a period of 3 months); or (iii) a diet containing urolithin A at a concentration of […], so as to deliver an approximate dose of 55 mg/kg/day (for a period of 2.5 months). Actual doses vary slightly depending on the food consumption of each individual mouse, as well as the weight of the mouse. Behavioral assessment of cognition was measured after this period.
To examine the effect of pomegranate-derived compounds on memory and cognition, mice were examined for improvements in contextual memory utilizing the contextual fear conditioning assay. Mice were trained in a fear conditioning chamber as described in Example 19.
During training, animals were placed into the chamber one at a time. After four minutes of exploration inside the chamber, one foot shock (2 seconds and 0.4 mA) was administered, followed by a second foot shock (2 seconds and 0.4 mA) one minute later. Thirty seconds after the second foot shock, the mouse was placed back into its home cage.
One day later, trained animals were returned to the chamber for a period of three minutes. During this period mice were monitored for their movement. The amount of time spent immobile or “frozen” was scored as a percentage of the total time (3 minutes) under observation. The time spent immobile is a measure of the strength of the memory of the mice to recall the context in which they were trained.
To determine the effect of these pomegranate-derived compounds on memory retention, normal mice fed either (i) a control diet; (ii) punicalagin (for a period of 3 months) or (iii) urolithin A (for a period of 2.5 months) were studied for their memory recall on days 1, 2, 3, 4 and 5 after the initial contextual fear training.
Animals were placed in the same chamber and context for 3 min daily (same time of day, however no shock this time) for the 5 days that followed the initial testing. Freezing behavior induced by the simple contextual recognition by the animals of the chamber, where they received the initial shock, was measured during each of these daily 3-minute periods. The ability to recognize this environment in the absence of the stimulus is a measurement of contextual memory.

[3] = test system: AMP-activated protein kinase (AMPK); assay: AMPK phosphorylation (Western blot) in C2C12 myotubes; assay type: cell-based; details: 1 hr, 50 μM, relative to control treated cells (FIG. 5A)
Description: C2C12 myoblasts were differentiated to myotubes by serum deprivation for 4 days (Canto et al. (2009) Nature. 458:1056-60). Myotubes were incubated for 1 hr with resveratrol (RSV), which served as a positive control, or ellagic acid (EA) or urolithin A (UL) at a final concentration of 50 μM (all dissolved in DMSO, final concentration 0.1%). DMSO was used as a control (final concentration of DMSO: 0.1%). At the end of the treatment, cells were washed 3 times with PBS, and AMP-activated protein kinase (AMPK) was assessed by Western blot. Following compound treatment, C2C12 cells were lysed in buffer containing phosphatase inhibitors, and protein concentration was determined using a standard Bradford assay. The equivalent of 25 μg of protein was used for separation on a 10% SDS-PAGE gel and subsequently transferred by standard Western blotting procedures. Antibodies directed to AMPK (Cell Signaling) and phosphorylated AMPK (P-AMPK, Cell Signaling) were used for detection.

C. elegans strain SJ4103 = assay: Mitochondrial GFP reporter in muscle of C. elegans strain SJ4103; assay type: in vivo; details: 50 μM from eggs, GFP monitored after one day of adulthood (FIG. 26)
Description: C. elegans strains were cultured at 20° C. on nematode growth media agar plates seeded with HT115 bacteria and containing 50 μM urolithin A or a corresponding concentration of DMSO as a control. […]. The strains used were the SJ4103 (zcIs14[myo-3::GFP(mit)]), which is a stable transgenic line expressing a mitochondrially localized green fluorescent protein (GFP) with a cleavable mitochondrial import signal peptide under the control of the specific body wall muscle promoter myo-3. GFP expression and quantification was carried out according to the protocol previously described (Durieux et al., 2011). Worms were treated with 50 μM urolithin A from eggs, and GFP was monitored after one day of adulthood. Fluorimetric assays were performed using a Victor X4 multilabel plate reader (Perkin-Elmer Life Science). Eighty worms were picked at random (20 worms per well of a black-walled 96-well plate) and each well was read four times and averaged.

| Structure (SMILES) | time spent in lit area (risk-taking behavior) [1] | immobility / swimming activity in forced swim test [2] | contextual memory, freezing 24 hours after training (normal mice) | memory retention, extinction of contextual memory over days 1-5 (normal mice) | levels of phosphorylation of AMPK (P-AMPK) [3] | expression of mitochondrial GFP-reporter driven by myo-3 promoter (fluorescence) (C. elegans strain SJ4103) |
| --- | --- | --- | --- | --- | --- | --- |
| O=C1O[C@H]2[C@@H]3OC(=O)c4cc(O)c(O)c(O)c4-c4c(O)c(O)c5oc(=O)c6c(c(O)c(O)c7oc(=O)c4c5c76)-c4c(cc(O)c(O)c4O)C(=O)OC[C@H]3OC(O)[C@@H]2OC(=O)c2cc(O)c(O)c(O)c2-c2c1cc(O)c(O)c2O (mixture of isomers) [punicalagin, 2,3 hexahydroxydiphenoyl-4,6-gallagylglucose] | reversed and normalized the excessive risk-taking behavior | increased swimming activity to levels seen in non-stressed mice | significant improvements in contextual memory | improved memory retention |  |  |
| O=c1oc2c(O)c(O)cc3c(=O)oc4c(O)c(O)cc1c4c23 [ellagic acid] |  |  |  |  | increased |  |
| O=c1oc2cc(O)ccc2c2ccc(O)cc12 [urolithin A, 3,8-Dihydroxydibenzo-α-pyrone] |  |  | significant improvements in contextual memory | improved memory retention | increased | induced the expression of the mitochondrial GFP-reporter |
